Laboratory results as given in PubChem BioAssay AID250 (DTP/NCI, 2004).
Where “and” joins values, the source holds several entries; their conditions need not be identical. Equal values may be shown once. Inconclusive results and toxic doses are left out.

System: BDF1 mice, L1210 leukemia sc, survival T/C
Test: NCI In Vivo Anticancer Drug Screen. Data for tumor model L1210 Leukemia (subcutaneous) in B6D2F1 (BDF1) mice
Details: endpoint: median survival time, higher = longer survival
How it was run: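 Expressed as T/C: measurement in compound-treated, tumor-bearing mice relative to vehicle-treated control mice, based on survival or tumor size.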

[1] = dose: 39.0 mg/kg/injection, schedule: Q01DX Z (sc), vehicle: saline
[2] = dose: 65.0 mg/kg/injection, schedule: Q01DX Z (sc), vehicle: saline

O=c1[nH]c(=O)n(C2CC(O)C(CO)O2)cc1F (stereo not drawn)
T/C (dose: 4.0 mg/kg/injection, schedule: Q01DX Z (sc), vehicle: saline): 100 % of control | T/C (dose: 5.0 mg/kg/injection, schedule: Q01DX009 (ip), vehicle: water): 100 % of control | T/C (dose: 5.0 mg/kg/injection, schedule: Q01DX009 (sc), vehicle: water): 101 % of control | T/C (dose: 8.0 mg/kg/injection, schedule: Q01DX Z (sc), vehicle: saline): 100 % of control | T/C (dose: 10.0 mg/kg/injection, schedule: Q01DX009 (ip), vehicle: water): 97 % of control | T/C (dose: 10.0 mg/kg/injection, schedule: Q01DX009 (sc), vehicle: water): 98 % of control | T/C (dose: 16.0 mg/kg/injection, schedule: Q01DX Z (sc), vehicle: saline): 111 % of control | T/C (dose: 20.0 mg/kg/injection, schedule: Q01DX009 (ip), vehicle: water): 101 % of control | T/C (dose: 20.0 mg/kg/injection, schedule: Q01DX009 (sc), vehicle: water): 104 % of control | T/C (dose: 23.0 mg/kg/injection, schedule: Q01DX Z (sc), vehicle: saline): 100 % of control | T/C (dose: 23.3 mg/kg/injection, schedule: Q01DX Z (sc), vehicle: saline): 104 % of control | T/C (dose: 32.0 mg/kg/injection, schedule: Q01DX Z (sc), vehicle: saline): 111 % of control | T/C (dose: 38.9 mg/kg/injection, schedule: Q01DX Z (sc), vehicle: saline): 91 % of control | T/C [1]: 100 % of control | T/C (dose: 40.0 mg/kg/injection, schedule: Q01DX009 (ip), vehicle: water): 110 % of control | T/C (dose: 40.0 mg/kg/injection, schedule: Q01DX009 (sc), vehicle: water): 121 % of control | T/C (dose: 50.0 mg/kg/injection, schedule: Q01DX009 (sc), vehicle: water): 100 % of control | T/C (dose: 64.0 mg/kg/injection, schedule: Q01DX Z (sc), vehicle: saline): 105 % of control | T/C (dose: 64.8 mg/kg/injection, schedule: Q01DX Z (sc), vehicle: saline): 100 % of control | T/C [2]: 100 % of control and 105 % of control | T/C (dose: 80.0 mg/kg/injection, schedule: Q01DX009 (ip), vehicle: water): 124 % of control | T/C (dose: 100.0 mg/kg/injection, schedule: Q01DX009 (sc), vehicle: water): 110 % of control | T/C (dose: 200.0 mg/kg/injection, schedule: Q01DX009 (sc), vehicle: water): 150 % of control | T/C (dose: 256.0 mg/kg/injection, schedule: Q01DX Z (sc), vehicle: saline): 161 % of control | T/C (dose: 400.0 mg/kg/injection, schedule: Q01DX009 (sc), vehicle: water): 153 % of control

O=C(Nc1ccc(C2=NCCCN2)cc1)c1ccc(C(=O)Nc2ccc(C3=NCCCN3)cc2)cc1
T/C (dose: 3.0 mg/kg/injection, schedule: Q01DX Z (sc), vehicle: methylcellulose (MC)): 190 % of control | T/C (dose: 5.0 mg/kg/injection, schedule: Q01DX Z (sc), vehicle: methylcellulose (MC)): 195 % of control | T/C (dose: 8.4 mg/kg/injection, schedule: Q01DX Z (sc), vehicle: methylcellulose (MC)): 165 % of control | T/C (dose: 14.0 mg/kg/injection, schedule: Q01DX Z (sc), vehicle: methylcellulose (MC)): 155 % of control | T/C (dose: 23.0 mg/kg/injection, schedule: Q01DX Z (sc), vehicle: methylcellulose (MC)): 150 % of control

CS(=O)(=O)OCC(O)C(O)COS(C)(=O)=O (stereo not drawn)
T/C [1]: 95 % of control | T/C [2]: 91 % of control | T/C (dose: 108.0 mg/kg/injection, schedule: Q01DX Z (sc), vehicle: saline): 91 % of control | T/C (dose: 180.0 mg/kg/injection, schedule: Q01DX Z (sc), vehicle: saline): 91 % of control | T/C (dose: 300.0 mg/kg/injection, schedule: Q01DX Z (sc), vehicle: saline): 100 % of control

Cc1c(CNc2ccc(C(=O)NC(CC(=O)O)C(=O)O)cc2)ccc2nc(N)nc(N)c12 (stereo not drawn)
T/C (dose: 0.05 mg/kg/injection, schedule: Q01DX017 (sc), vehicle: sodium bicarbonate): 116 % of control | T/C (dose: 1.8 mg/kg/injection, schedule: Q04DX005 (sc), vehicle: sodium bicarbonate): 229 % of control | T/C (dose: 3.0 mg/kg/injection, schedule: Q04DX005 (sc), vehicle: sodium bicarbonate): 233 % of control | T/C (dose: 5.0 mg/kg/injection, schedule: Q04DX005 (sc), vehicle: sodium bicarbonate): 170 % of control | T/C (dose: 8.4 mg/kg/injection, schedule: Q04DX005 (sc), vehicle: sodium bicarbonate): 150 % of control | T/C (dose: 14.0 mg/kg/injection, schedule: Q01DX017 (sc), vehicle: sodium bicarbonate): 95 % of control | T/C (dose: 14.0 mg/kg/injection, schedule: Q04DX005 (sc), vehicle: sodium bicarbonate): 116 % of control | T/C (dose: 23.0 mg/kg/injection, schedule: Q01DX017 (sc), vehicle: sodium bicarbonate): 87 % of control

CS(=O)(=O)OCCCCCCCCCOS(C)(=O)=O
T/C (dose: 47.0 mg/kg/injection, schedule: Q01DX Z (sc), vehicle: methylcellulose (MC)): 105 % of control | T/C (dose: 78.0 mg/kg/injection, schedule: Q01DX Z (sc), vehicle: methylcellulose (MC)): 115 % of control | T/C (dose: 216.0 mg/kg/injection, schedule: Q01DX Z (sc), vehicle: methylcellulose (MC)): 160 % of control

CC[C@H]1CN2CCc3cc(OC)c(OC)cc3[C@@H]2C[C@@H]1C[C@H]1NCCc2cc(OC)c(OC)cc21
T/C (dose: 0.39 mg/kg/injection, schedule: Q03HX003 (sc), vehicle: saline): 107 % of control | T/C (dose: 0.65 mg/kg/injection, schedule: Q03HX003 (sc), vehicle: saline): 92 % of control | T/C (dose: 1.08 mg/kg/injection, schedule: Q03HX003 (sc), vehicle: saline): 100 % of control | T/C (dose: 1.8 mg/kg/injection, schedule: Q01DX009 (sc), vehicle: saline): 100 % of control | T/C (dose: 1.8 mg/kg/injection, schedule: Q03HX003 (sc), vehicle: saline): 114 % of control | T/C (dose: 3.0 mg/kg/injection, schedule: Q01DX009 (sc), vehicle: saline): 103 % of control | T/C (dose: 5.0 mg/kg/injection, schedule: Q04DX003 (sc), vehicle: saline): 96 % of control | T/C (dose: 8.4 mg/kg/injection, schedule: Q04DX003 (sc), vehicle: saline): 107 % of control | T/C (dose: 16.0 mg/kg/injection, schedule: Q01DX001 (ip), vehicle: acid diluted with saline): 124 % of control

CCC(=O)OCC1OC(n2cnc3c(=S)nc(N)[nH]c32)C(OC(=O)CC)C1OC(=O)CC (stereo not drawn)
T/C (dose: 5.0 mg/kg/injection, schedule: Q01DX Z (sc), vehicle: carboxymethylcellulose (CMC)): 100 % of control | T/C (dose: 14.0 mg/kg/injection, schedule: Q01DX Z (sc), vehicle: carboxymethylcellulose (CMC)): 109 % of control | T/C (dose: 23.0 mg/kg/injection, schedule: Q01DX Z (sc), vehicle: carboxymethylcellulose (CMC)): 100 % of control

OCC1OC(n2cnc3c(=S)nc[nH]c32)C(O)C1O (stereo not drawn)
T/C (dose: 38.9 mg/kg/injection, schedule: Q01DX Z (sc), vehicle: methylcellulose (MC)): 110 % of control | T/C (dose: 50.0 mg/kg/injection, schedule: Q03HX024 (ip), vehicle: other): 150 % of control | T/C (dose: 64.8 mg/kg/injection, schedule: Q01DX Z (sc), vehicle: methylcellulose (MC)): 155 % of control | T/C (dose: 100.0 mg/kg/injection, schedule: Q03HX024 (ip), vehicle: other): 155 % of control | T/C (dose: 100.0 mg/kg/injection, schedule: Q03HX024 (sc), vehicle: other): 155 % of control | T/C (dose: 108.0 mg/kg/injection, schedule: Q01DX Z (sc), vehicle: methylcellulose (MC)): 160 % of control | T/C (dose: 180.0 mg/kg/injection, schedule: Q01DX Z (sc), vehicle: methylcellulose (MC)): 150 % of control | T/C (dose: 200.0 mg/kg/injection, schedule: Q03HX024 (ip), vehicle: other): 161 % of control | T/C (dose: 200.0 mg/kg/injection, schedule: Q03HX024 (sc), vehicle: other): 155 % of control | T/C (dose: 300.0 mg/kg/injection, schedule: Q01DX Z (sc), vehicle: methylcellulose (MC)): 150 % of control | T/C (dose: 400.0 mg/kg/injection, schedule: Q01DX009 (ip), vehicle: other): 155 % of control | T/C (dose: 400.0 mg/kg/injection, schedule: Q01DX009 (sc), vehicle: other): 150 % of control | T/C (dose: 400.0 mg/kg/injection, schedule: Q03HX024 (ip), vehicle: other): 155 % of control | T/C (dose: 400.0 mg/kg/injection, schedule: Q03HX024 (sc), vehicle: other): 105 % of control | T/C (dose: 800.0 mg/kg/injection, schedule: Q01DX009 (ip), vehicle: other): 155 % of control | T/C (dose: 800.0 mg/kg/injection, schedule: Q01DX009 (sc), vehicle: other): 161 % of control | T/C (dose: 1600.0 mg/kg/injection, schedule: Q01DX009 (ip), vehicle: other): 122 % of control | T/C (dose: 1600.0 mg/kg/injection, schedule: Q01DX009 (sc), vehicle: other): 155 % of control | T/C (dose: 3200.0 mg/kg/injection, schedule: Q01DX009 (sc), vehicle: other): 111 % of control | T/C (dose: 3200.0 mg/kg/injection, schedule: Q04DX003 (sc), vehicle: other): 150 % of control
